Assay results published in patent US11306087B2, “Inhibitors of KRAS G12C and methods of using the same” (Amgen Inc., priority 2017, dated 2022).

How the values were obtained:
[1] = system: Phosphorylation of ERK1/2 in MIA PaCa-2 cells; assay: Phospho-ERK1/2 MSD Assay; format: cell-based; conditions: Homo sapiens, 2 hours compound treatment, 10 ng/mL EGF for 10 min, read-out: p-ERK IC50 (MIA PaCa-2)
Method: Phospho-ERK1/2 MSD Assay: MIA PaCa-2 (ATCC® CRL-1420™) and A549 (ATCC® CCL-185™) cells were cultured in RPMI 1640 Medium (ThermoFisher Scientific 11875093) containing 10% fetal bovine serum (ThermoFisher Scientific 16000044) and 1× penicillin-streptomycin-glutamine (ThermoFisher Scientific 10378016). Sixteen hours prior to compound treatment, MIA PaCa-2 or A549 cells were seeded in 96-well cell culture plates at a density of 25,000 cells/well and incubated at 37° C., 5% CO2. A compound dose-response titration was diluted in growth media, added to appropriate wells of a cell culture plate, and then incubated at 37° C., 5% CO2 for 2 hours. Following compound treatment, cells were stimulated with 10 ng/mL EGF (Roche 11376454001) for 10 min, washed with ice-cold Dulbecco's phosphate-buffered saline, no Ca^2+ or Mg^2+ (ThermoFisher Scientific 14190144), and then lysed in RIPA buffer (50 mM Tris-HCl pH 7.5, 1% Igepal, 0.5% sodium deoxycholate, 150 mM NaCl, and 0.5% sodium dodecyl sulfate) containing protease inhibitors (Roche 4693132001) and phosphatase inhibitors (Roche 4906837001). Phosphorylation of ERK1/2 in compound-treated lysates was assayed using Phospho-ERK1/2 Whole Cell Lysate kits (Meso Scale Discovery K151DWD) according to the manufacturer's protocol. Assay plates were read on a Meso Scale Discovery Sector Imager 6000, and data were analyzed using a 4-parameter logistic model to calculate IC50 values.

[2] = molecular target: GDP-bound KRAS protein (aa 1-169), containing both G12C and C118A amino acid substitutions (Homo sapiens (Human), UniProt P01116, C118A/G12C); assay: Coupled Nucleotide Exchange Assay; format: biochemical; conditions: 5 min compound pre-incubation; inhibition of SOS-mediated nucleotide exchange; AlphaScreen
Chain of GDP-bound KRAS protein (aa 1-169), containing both G12C and C118A amino acid substitutions (P01116 other isoform, or with tags, fused parts or gaps G12C/C118A): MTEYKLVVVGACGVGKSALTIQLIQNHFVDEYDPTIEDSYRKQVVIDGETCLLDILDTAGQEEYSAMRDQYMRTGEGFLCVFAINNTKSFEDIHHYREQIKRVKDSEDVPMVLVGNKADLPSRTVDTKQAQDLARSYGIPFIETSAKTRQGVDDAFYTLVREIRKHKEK
Method: For compounds in Table 2, the following assay conditions were employed: Coupled Nucleotide Exchange Assay: Purified GDP-bound KRAS protein (aa 1-169), containing both G12C and C118A amino acid substitutions and an N-terminal His-tag, was pre-incubated with a compound dose-response titration for 5 min in assay buffer (25 mM HEPES pH 7.4, 10 mM MgCl2, and 0.01% Triton X-100). Following compound pre-incubation, purified SOS protein (aa 564-1049) and GTP (Roche 10106399001) were added to the assay wells and incubated for an additional 30 min. To determine the extent of inhibition of SOS-mediated nucleotide exchange, purified GST-tagged cRAF (aa 1-149), nickel chelate AlphaLISA acceptor beads (PerkinElmer AL108R), and AlphaScreen glutathione donor beads (PerkinElmer 6765302) were added to the assay wells and incubated for 5 minutes. The assay plates were then read on a PerkinElmer EnVision Multilabel Reader, using AlphaScreen® technology, and data were analyzed using a 4-parameter logistic model to calculate IC50 values.

C=CC(=O)N1[C@H](C)CN(c2nc(=O)n(-c3c(C(C)C)ncnc3C(C)C)c3nc(-c4c(N)cccc4F)c(Cl)cc23)C[C@@H]1C [Example 21, 4-(4-Acryloyl-cis-3,5-dimethylpiperazin-1-yl)-7-(2-amino-6-fluorophenyl)-6-chloro-1-(4,6-diisopropylpyrimidin-5-yl)pyrido[2,3-d]pyrimidin-2(1H)-one] showed an IC50 [1] of 36 nM and an IC50 [2] of 92 nM.
C=CC(=O)N1C[C@H](C)N(c2nc(=O)n(-c3c(C(C)C)ncnc3C(C)C)c3nc(-c4c(N)cccc4F)c(Cl)cc23)C[C@H]1C [Example 9, 4-((2S,5R)-4-Acryloyl-2,5-dimethylpiperazin-1-yl)-7-(2-amino-6-fluorophenyl)-6-chloro-1-(4,6-diisopropylpyrimidin-5-yl)pyrido[2,3-d]pyrimidin-2(1H)-one] was tested, and the IC50 [1] was 21 nM and the IC50 [2] was 54 nM.
For C=CC(=O)N1C[C@H](C)N(c2nc(=O)n(-c3c(C(C)C)ncnc3C(C)C)c3nc(-c4ccccc4F)c(Cl)cc23)C[C@H]1C [Example 7, 4-((2S,5R)-4-Acryloyl-2,5-dimethylpiperazin-1-yl)-6-chloro-1-(4,6-diisopropylpyrimidin-5-yl)-7-(2-fluorophenyl)pyrido[2,3-d]pyrimidin-2(1H)-one], the IC50 [1] was 26 nM and the IC50 [2] was 49 nM.
In the case of C=CC(=O)N1[C@H](C)CN(c2nc(=O)n(-c3c(C(C)C)ncnc3C(C)C)c3nc(-c4ccccc4F)c(Cl)cc23)C[C@@H]1C [Example 19, 4-(4-Acryloyl-cis-3,5-dimethylpiperazin-1-yl)-6-chloro-1-(4,6-diisopropylpyrimidin-5-yl)-7-(2-fluorophenyl)pyrido[2,3-d]pyrimidin-2(1H)-one], the IC50 [1] is reported as 61 nM and the IC50 [2] is reported as 42 nM.
With C=CC(=O)N1C[C@H](C)N(c2nc(=O)n(-c3c(C)ccnc3C(C)C)c3nc(-c4c(N)cccc4F)c(Cl)cc23)C[C@H]1C [Example 3, 4-((2S,5R,M)-4-Acryloyl-2,5-dimethylpiperazin-1-yl)-7-(2-amino-6-fluorophenyl)-6-chloro-1-(2-isopropyl-4-methylpyridin-3-yl)pyrido[2,3-d]pyrimidin-2(1H)-one] the IC50 [1] was 9 nM and the IC50 [2] was 13 nM.
For C=CC(=O)N1C[C@H](C)N(c2nc(=O)n(-c3c(C(C)C)ncnc3C(C)C)c3nc(-c4c(N)cccc4F)c(F)cc23)C[C@H]1C [Example 12, 4-((2S,5R)-4-Acryloyl-2,5-dimethylpiperazin-1-yl)-7-(2-amino-6-fluorophenyl)-1-(4,6-diisopropylpyrimidin-5-yl)-6-fluoropyrido[2,3-d]pyrimidin-2(1H)-one], the IC50 [1] was 88 nM and the IC50 [2] was 214 nM.
For C=CC(=O)N1[C@H](C)CN(c2nc(=O)n(-c3c(C(C)C)ncnc3C(C)C)c3nc(-c4c(N)cccc4F)c(F)cc23)C[C@@H]1C [Example 24, 4-(4-Acryloyl-cis-3,5-dimethylpiperazin-1-yl)-7-(2-amino-6-fluorophenyl)-1-(4,6-diisopropylpyrimidin-5-yl)-6-fluoropyrido[2,3-d]pyrimidin-2(1H)-one], the IC50 [2] was 396 nM.
C=CC(=O)N1C[C@H](C)N(c2nc(=O)n(-c3c(C)ccnc3C(C)C)c3nc(-c4ccccc4F)c(F)cc23)C[C@H]1C [Example 4, 4-((2S,5R,M)-4-Acryloyl-2,5-dimethylpiperazin-1-yl)-6-fluoro-7-(2-fluorophenyl)-1-(2-isopropyl-4-methylpyridin-3-yl)pyrido[2,3-d]pyrimidin-2(1H)-one] showed an IC50 [1] of 102 nM and an IC50 [2] of 206 nM.
For C=CC(=O)N1[C@H](C)CN(c2nc(=O)n(-c3c(C)ccnc3C(C)C)c3nc(-c4c(N)cccc4F)c(Cl)cc23)C[C@@H]1C (atropisomer, axis not shown; (M)) [Example 15, (M)-4-(4-Acryloyl-cis-3,5-dimethylpiperazin-1-yl)-7-(2-amino-6-fluorophenyl)-6-chloro-1-(2-isopropyl-4-methylpyridin-3-yl)pyrido[2,3-d]pyrimidin-2(1H)-one], the IC50 [1] was 15 nM.
With C=CC(=O)N1C[C@H](C)N(c2nc(=O)n(-c3c(C(C)C)ncnc3C(C)C)c3nc(-c4c(O)cccc4F)c(F)cc23)C[C@H]1C [Example 11, 4-((2S,5R)-4-Acryloyl-2,5-dimethylpiperazin-1-yl)-1-(4,6-diisopropylpyrimidin-5-yl)-6-fluoro-7-(2-fluoro-6-hydroxyphenyl)pyrido[2,3-d]pyrimidin-2(1H)-one] the IC50 [1] was 103 nM and the IC50 [2] was 136 nM.
Work on C=CC(=O)N1[C@H](C)CN(c2nc(=O)n(-c3c(C)ccnc3C(C)C)c3nc(-c4c(O)cccc4F)c(Cl)cc23)C[C@@H]1C (atropisomer, axis not shown; (M)) [Example 14, (M)-4-(4-Acryloyl-cis-3,5-dimethylpiperazin-1-yl)-6-chloro-7-(2-fluoro-6-hydroxyphenyl)-1-(2-isopropyl-4-methylpyridin-3-yl)pyrido[2,3-d]pyrimidin-2(1H)-one] yielded an IC50 [1] of 35 nM and an IC50 [2] of 16 nM.
C=CC(=O)N1C[C@H](C)N(c2nc(=O)n(-c3c(C)ccnc3C(C)C)c3nc(-c4c(O)cccc4F)c(Cl)cc23)C[C@H]1C [Example 2, 4-((2S,5R,M)-4-Acryloyl-2,5-dimethylpiperazin-1-yl)-6-chloro-7-(2-fluoro-6-hydroxyphenyl)-1-(2-isopropyl-4-methylpyridin-3-yl)pyrido[2,3-d]pyrimidin-2(1H)-one] gave an IC50 [1] of 16 nM and an IC50 [2] of 27 nM.
Work on C=CC(=O)N1[C@H](C)CN(c2nc(=O)n(-c3c(C(C)C)ncnc3C(C)C)c3nc(-c4c(O)cccc4F)c(Cl)cc23)C[C@@H]1C [Example 20, 4-(4-Acryloyl-cis-3,5-dimethylpiperazin-1-yl)-6-chloro-1-(4,6-diisopropylpyrimidin-5-yl)-7-(2-fluoro-6-hydroxyphenyl)pyrido[2,3-d]pyrimidin-2(1H)-one] yielded an IC50 [1] of 22 nM and an IC50 [2] of 34 nM.
C=CC(=O)N1C[C@H](C)N(c2nc(=O)n(-c3c(C(C)C)ncnc3C(C)C)c3nc(-c4c(O)cccc4F)c(Cl)cc23)C[C@H]1C [Example 8, 4-((2S,5R)-4-Acryloyl-2,5-dimethylpiperazin-1-yl)-6-chloro-1-(4,6-diisopropylpyrimidin-5-yl)-7-(2-fluoro-6-hydroxyphenyl)pyrido[2,3-d]pyrimidin-2(1H)-one] gave an IC50 [1] of 15 nM and an IC50 [2] of 30 nM.
C=CC(=O)N1[C@H](C)CN(c2nc(=O)n(-c3c(C)ccnc3C(C)C)c3nc(-c4c(N)cccc4F)c(F)cc23)C[C@@H]1C (atropisomer, axis not shown; (M)) [Example 18, (M)-4-(4-Acryloyl-cis-3,5-dimethylpiperazin-1-yl)-7-(2-amino-6-fluorophenyl)-6-fluoro-1-(2-isopropyl-4-methylpyridin-3-yl)pyrido[2,3-d]pyrimidin-2(1H)-one] was tested, and the IC50 [1] was 75 nM and the IC50 [2] was 69 nM.
C=CC(=O)N1[C@H](C)CN(c2nc(=O)n(-c3c(C)ccnc3C(C)C)c3nc(-c4ccccc4F)c(Cl)cc23)C[C@@H]1C (atropisomer, axis not shown; (M)) [Example 13, (M)-4-(4-Acryloyl-cis-3,5-dimethylpiperazin-1-yl)-6-chloro-7-(2-fluorophenyl)-1-(2-isopropyl-4-methylpyridin-3-yl)pyrido[2,3-d]pyrimidin-2(1H)-one] gave an IC50 [1] of 46 nM and an IC50 [2] of 53 nM.
With C=CC(=O)N1[C@H](C)CN(c2nc(=O)n(-c3c(C(C)C)ncnc3C(C)C)c3nc(-c4ccccc4F)c(F)cc23)C[C@@H]1C [Example 22, 4-(4-Acryloyl-cis-3,5-dimethylpiperazin-1-yl)-1-(4,6-diisopropylpyrimidin-5-yl)-6-fluoro-7-(2-fluorophenyl)pyrido[2,3-d]pyrimidin-2(1H)-one] the IC50 [2] was 560 nM.
For C=CC(=O)N1[C@H](C)CN(c2nc(=O)n(-c3c(C)ccnc3C(C)C)c3nc(-c4ccccc4F)c(F)cc23)C[C@@H]1C (atropisomer, axis not shown; (M)) [Example 16, (M)-4-(4-Acryloyl-cis-3,5-dimethylpiperazin-1-yl)-6-fluoro-7-(2-fluorophenyl)-1-(2-isopropyl-4-methylpyridin-3-yl)pyrido[2,3-d]pyrimidin-2(1H)-one], the IC50 [2] was 512 nM.
